Reference: PMC6774887 (Molecular cancer therapeutics, 2019)

Key:
AICARFTase (ATIC) [1] = biological target: T1, AICARFTase (ATIC) (Homo sapiens, UniProt P31939); assay: spectrophotometric THF formation; assay type: biochemical
MTHFD2 = biological target: T2, MTHFD2 (Homo sapiens, UniProt P13995); assay: NAD; assay type: biochemical
T2 sequence (P13995 36-333): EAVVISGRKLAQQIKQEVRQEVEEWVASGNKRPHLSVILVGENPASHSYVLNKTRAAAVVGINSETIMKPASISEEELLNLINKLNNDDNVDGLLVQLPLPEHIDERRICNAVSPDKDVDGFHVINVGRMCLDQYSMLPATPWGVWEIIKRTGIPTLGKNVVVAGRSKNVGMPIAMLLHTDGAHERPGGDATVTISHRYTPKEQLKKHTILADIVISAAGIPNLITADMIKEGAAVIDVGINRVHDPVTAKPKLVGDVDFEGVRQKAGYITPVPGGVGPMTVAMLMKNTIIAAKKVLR

AICARFTase (ATIC) [2] = biological target: T1, AICARFTase (ATIC); assay: spectrophotometric THF formation from 10-formyl-THF; assay type: biochemical; conditions: Ki = IC50/([S]/KM+[…]); KM of […]-formyl-THF […]
SHMT1 [3] = biological target: T3, SHMT1 (Homo sapiens, UniProt P34896); assay: coupled SHMT/MTHFD2 assay, NADH fluorescence; assay type: biochemical; conditions: Ki = IC50/([S]/KM+[…]); KM of THF […]; His-MTHFD2 in […] molar excess
T3 sequence (P34896 7-478): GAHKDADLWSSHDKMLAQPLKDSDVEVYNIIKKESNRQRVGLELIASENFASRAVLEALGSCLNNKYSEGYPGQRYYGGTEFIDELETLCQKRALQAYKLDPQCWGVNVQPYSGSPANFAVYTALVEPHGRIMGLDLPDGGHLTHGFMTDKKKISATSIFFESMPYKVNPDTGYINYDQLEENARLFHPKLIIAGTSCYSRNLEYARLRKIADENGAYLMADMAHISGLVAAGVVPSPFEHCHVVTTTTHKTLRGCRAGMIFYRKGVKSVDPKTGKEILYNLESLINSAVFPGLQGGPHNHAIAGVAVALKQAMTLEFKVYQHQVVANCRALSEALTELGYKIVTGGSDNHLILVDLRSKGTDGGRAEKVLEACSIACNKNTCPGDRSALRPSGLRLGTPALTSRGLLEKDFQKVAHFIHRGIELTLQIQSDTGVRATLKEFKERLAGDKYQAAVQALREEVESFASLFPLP

SHMT2 [4] = biological target: T4, SHMT2 (Homo sapiens, UniProt P34897); assay: coupled SHMT/MTHFD2 assay, NADH fluorescence; assay type: biochemical; conditions: Ki = IC50/([S]/KM+[…]); KM of THF […]; His-MTHFD2 in […] molar excess
T4 sequence (P34897 42-504): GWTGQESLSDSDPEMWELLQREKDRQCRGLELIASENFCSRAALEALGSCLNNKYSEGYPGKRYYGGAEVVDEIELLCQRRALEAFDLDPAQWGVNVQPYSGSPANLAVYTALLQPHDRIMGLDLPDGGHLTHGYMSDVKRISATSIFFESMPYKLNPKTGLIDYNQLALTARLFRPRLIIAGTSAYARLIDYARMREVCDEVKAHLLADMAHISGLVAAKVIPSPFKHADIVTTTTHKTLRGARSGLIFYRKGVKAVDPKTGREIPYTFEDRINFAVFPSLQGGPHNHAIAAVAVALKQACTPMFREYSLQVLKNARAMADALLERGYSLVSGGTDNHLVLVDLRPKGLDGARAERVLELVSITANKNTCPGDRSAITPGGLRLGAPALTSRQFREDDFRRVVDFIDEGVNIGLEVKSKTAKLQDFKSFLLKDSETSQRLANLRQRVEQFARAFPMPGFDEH

SHMT1 [5] = biological target: T3, SHMT1; assay: coupled SHMT/MTHFD2 assay, NADH fluorescence; assay type: biochemical; conditions: His-MTHFD2 in […] molar excess
SHMT2 [6] = biological target: T4, SHMT2; assay: coupled SHMT/MTHFD2 assay, NADH fluorescence; assay type: biochemical; conditions: His-MTHFD2 in […] molar excess
[7] = substrate: Nc1nc2c(c(=O)[nH]1)N[C@@H](CN(C=O)c1ccc(C(=O)N[C@@H](CCC(=O)O)C(=O)O)cc1)CN2; assay: spectrophotometric THF formation; assay type: biochemical, Homo sapiens

T1 sequence (P31939 whole entry): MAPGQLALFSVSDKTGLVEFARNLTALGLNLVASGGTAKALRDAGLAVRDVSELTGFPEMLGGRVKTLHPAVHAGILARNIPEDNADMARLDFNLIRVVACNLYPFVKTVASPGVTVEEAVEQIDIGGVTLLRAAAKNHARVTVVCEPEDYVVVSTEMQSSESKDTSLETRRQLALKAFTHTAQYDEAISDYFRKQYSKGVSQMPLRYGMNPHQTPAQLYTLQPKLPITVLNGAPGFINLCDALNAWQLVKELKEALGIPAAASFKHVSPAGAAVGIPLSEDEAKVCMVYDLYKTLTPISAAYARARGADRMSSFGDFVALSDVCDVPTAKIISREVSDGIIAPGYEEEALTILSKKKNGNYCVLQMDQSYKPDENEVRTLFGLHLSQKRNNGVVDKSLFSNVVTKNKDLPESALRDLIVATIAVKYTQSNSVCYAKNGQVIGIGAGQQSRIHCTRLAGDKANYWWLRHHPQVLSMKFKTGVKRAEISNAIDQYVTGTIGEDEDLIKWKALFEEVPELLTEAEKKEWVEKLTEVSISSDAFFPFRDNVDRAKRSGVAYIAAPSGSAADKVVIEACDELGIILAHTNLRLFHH

Nc1nc2c(c(=O)[nH]1)N[C@@H](CN(C=O)c1ccc(C(=O)N[C@@H](CCC(=O)O)C(=O)O)cc1)CN2 [10-formyl-THF]
Km (AICARFTase (ATIC) [1]): 100 µM

Nc1nc2[nH]c(CCCc3ccc(C(=O)N[C@@H](CCC(=O)O)C(=O)O)s3)cc2c(=O)[nH]1 [AGF94]
NI (no inhibition up to 200 μM inhibitor; Ki column) (MTHFD2): > 200 µM
NI (no inhibition up to 200 μM inhibitor; Ki column) (AICARFTase (ATIC) [2]): > 200 µM

Nc1nc(=O)c2c(CCc3ccc(C(=O)N[C@@H](CCC(=O)O)C(=O)O)cc3)c[nH]c2[nH]1 [PMX]
NI (no inhibition up to 200 μM inhibitor; Ki column) (MTHFD2): > 200 µM
NI (no inhibition up to 200 μM inhibitor; Ki column) (SHMT1 [3]): > 200 µM
NI (no inhibition up to 200 μM inhibitor; Ki column) (SHMT2 [4]): > 200 µM

Nc1nc2c(c(=O)[nH]1)N[C@@H](CNc1ccc(C(=O)N[C@@H](CCC(=O)O)C(=O)O)cc1)CN2 [THF]
Km (SHMT1 [5]): 62.8 µM
Km (SHMT2 [6]): 108 µM

AGF320
NI (no inhibition up to 200 μM inhibitor; Ki column) (MTHFD2): > 200 µM

B1: GARFTase (Homo sapiens) (protein)
chain: ARVAVLISGTGSNLQALIDSTREPNSSAQIDIVISNKAAVAGLDKAERAGIPTRVINHKLYKNRVEFDSAIDLVLEEFSIDIVCLAGFMRILSGPFVQKWNGKMLNIHPSLLPSFKGSNAHEQALETGVTVTGCTVHFVAEDVDAGQIILQEAVPVKRGDTVATLSERVKLAEHKIFPAALQLVASGTVQLGENGKICWVKEE
Km [7]: 84.8 µM
